Assays:
[1] = target: Beta-1 adrenergic receptor (Homo sapiens, UniProt P08588); assay: DRUGMATRIX: Adrenergic beta1 radioligand binding (ligand: [125I] Cyanopindolol); assay type: cell membranes, CHO-K1, Membrane; conditions: cho-k1; Not Active = under 50% inhibition at 10 µM
[2] = DRUGMATRIX: Sodium/nucleoside co-transporter radioligand binding (ligand: nitrobenzylthioinosine); assay type: cell membranes, Cavia porcellus, Dunkin-Hartley, Cerebral cortex, Membrane; conditions: Not Active = under 50% inhibition at 10 µM
[3] = target: Epidermal growth factor receptor (Homo sapiens, UniProt P00533); assay: DRUGMATRIX: Protein Tyrosine Kinase, EGF Receptor enzyme inhibition (substrate: Poly(Glu:Tyr)); assay type: cell-based, Insect cells; conditions: Not Active = under 50% inhibition at 10 µM
[4] = target: Cytochrome P450 3A4 (Homo sapiens, UniProt P08684); conditions: bti-tn-5b1-4; note: in other assays of this panel Not Active means under 50% inhibition at 10 µM
[5] = DRUGMATRIX: Phorbol Ester radioligand binding (ligand: [3H] PDBu); assay type: cell membranes, Mus musculus, ICR, Brain, Membrane; conditions: Not Active = under 50% inhibition at 10 µM
[6] = target: Mitogen-activated protein kinase 14 (Homo sapiens, UniProt Q16539); parameters: species or system Escherichia coli;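 note: inhibition of p38alpha enzyme activity in a biochemical kinase assay, with myelin basic protein serving as substrate; in other assays of this panel Not Active means under 50% inhibition at 10 µM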
[7] = DRUGMATRIX: Serotonin (5-Hydroxytryptamine) 5-HT3 radioligand binding (ligand: [3H] GR-65630); assay type: cell membranes, Membrane; conditions: hek293; Not Active = under 50% inhibition at 10 µM

Sequence of Mitogen-activated protein kinase 14 (Q16539 whole entry): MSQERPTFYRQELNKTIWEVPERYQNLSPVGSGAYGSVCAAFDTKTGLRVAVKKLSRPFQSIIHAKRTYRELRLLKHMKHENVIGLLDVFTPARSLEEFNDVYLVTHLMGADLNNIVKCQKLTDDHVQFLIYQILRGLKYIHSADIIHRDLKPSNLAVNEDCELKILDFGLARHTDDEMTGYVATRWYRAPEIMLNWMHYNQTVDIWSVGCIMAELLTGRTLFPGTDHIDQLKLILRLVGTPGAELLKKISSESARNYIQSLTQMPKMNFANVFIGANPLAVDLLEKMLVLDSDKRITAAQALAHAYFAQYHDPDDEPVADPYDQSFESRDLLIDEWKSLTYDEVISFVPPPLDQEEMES
Sequence of Epidermal growth factor receptor (P00533 whole entry): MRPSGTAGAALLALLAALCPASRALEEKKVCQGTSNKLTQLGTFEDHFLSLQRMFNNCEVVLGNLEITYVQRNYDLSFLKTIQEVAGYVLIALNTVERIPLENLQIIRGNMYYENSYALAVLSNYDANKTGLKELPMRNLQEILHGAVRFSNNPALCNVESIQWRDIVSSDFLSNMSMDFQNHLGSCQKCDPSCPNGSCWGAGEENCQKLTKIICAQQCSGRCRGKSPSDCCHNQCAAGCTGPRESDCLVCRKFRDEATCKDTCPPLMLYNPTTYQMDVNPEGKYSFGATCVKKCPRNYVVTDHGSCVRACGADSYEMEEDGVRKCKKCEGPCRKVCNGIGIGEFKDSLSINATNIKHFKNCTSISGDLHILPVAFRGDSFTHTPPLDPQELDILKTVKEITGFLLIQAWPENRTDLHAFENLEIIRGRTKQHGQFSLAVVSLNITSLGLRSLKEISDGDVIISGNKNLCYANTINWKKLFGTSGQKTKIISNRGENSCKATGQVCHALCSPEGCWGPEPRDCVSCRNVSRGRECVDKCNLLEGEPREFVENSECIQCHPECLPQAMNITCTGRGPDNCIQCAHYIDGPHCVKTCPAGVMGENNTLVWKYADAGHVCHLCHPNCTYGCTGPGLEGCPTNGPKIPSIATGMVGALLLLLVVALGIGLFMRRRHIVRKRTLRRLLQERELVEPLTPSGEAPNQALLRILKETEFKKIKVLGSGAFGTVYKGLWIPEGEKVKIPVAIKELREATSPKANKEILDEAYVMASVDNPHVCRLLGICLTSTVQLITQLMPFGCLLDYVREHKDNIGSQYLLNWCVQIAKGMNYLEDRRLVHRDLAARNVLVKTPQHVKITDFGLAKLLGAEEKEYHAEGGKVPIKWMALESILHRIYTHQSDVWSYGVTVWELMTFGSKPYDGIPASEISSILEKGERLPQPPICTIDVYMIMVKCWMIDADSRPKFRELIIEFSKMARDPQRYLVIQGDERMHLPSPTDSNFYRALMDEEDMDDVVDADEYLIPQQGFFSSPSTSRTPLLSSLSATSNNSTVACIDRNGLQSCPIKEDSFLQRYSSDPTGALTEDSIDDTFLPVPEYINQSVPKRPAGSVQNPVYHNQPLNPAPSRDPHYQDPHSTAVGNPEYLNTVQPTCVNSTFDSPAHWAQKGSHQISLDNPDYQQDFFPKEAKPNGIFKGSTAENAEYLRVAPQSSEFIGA
Sequence of Beta-1 adrenergic receptor (P08588 whole entry): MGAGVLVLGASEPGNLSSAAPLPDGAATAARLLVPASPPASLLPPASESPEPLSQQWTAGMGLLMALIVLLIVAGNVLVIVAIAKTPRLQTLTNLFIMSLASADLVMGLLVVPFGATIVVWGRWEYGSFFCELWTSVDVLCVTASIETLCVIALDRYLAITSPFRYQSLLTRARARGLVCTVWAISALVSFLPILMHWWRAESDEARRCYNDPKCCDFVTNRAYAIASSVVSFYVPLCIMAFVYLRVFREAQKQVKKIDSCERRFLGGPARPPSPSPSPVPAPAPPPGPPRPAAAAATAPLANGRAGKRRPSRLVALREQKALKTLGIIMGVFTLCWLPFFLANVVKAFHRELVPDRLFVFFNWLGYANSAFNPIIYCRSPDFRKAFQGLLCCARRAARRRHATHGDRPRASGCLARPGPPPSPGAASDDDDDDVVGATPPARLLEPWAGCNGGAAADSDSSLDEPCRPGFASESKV
Sequence of Cytochrome P450 3A4 (P08684 whole entry): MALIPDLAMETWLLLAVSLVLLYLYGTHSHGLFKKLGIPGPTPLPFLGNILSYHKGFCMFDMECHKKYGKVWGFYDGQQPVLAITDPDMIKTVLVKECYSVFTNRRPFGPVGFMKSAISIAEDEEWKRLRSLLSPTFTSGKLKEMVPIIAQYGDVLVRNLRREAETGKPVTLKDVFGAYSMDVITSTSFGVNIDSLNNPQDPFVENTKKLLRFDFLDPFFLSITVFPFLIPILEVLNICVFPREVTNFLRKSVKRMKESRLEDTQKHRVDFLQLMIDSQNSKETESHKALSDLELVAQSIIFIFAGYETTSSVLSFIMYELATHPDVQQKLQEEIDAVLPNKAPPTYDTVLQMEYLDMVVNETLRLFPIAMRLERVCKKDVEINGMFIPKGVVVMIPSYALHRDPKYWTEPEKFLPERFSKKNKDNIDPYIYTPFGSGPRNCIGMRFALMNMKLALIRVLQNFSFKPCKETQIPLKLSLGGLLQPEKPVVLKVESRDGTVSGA

SMILES | IC50 [1] | IC50 [2] | Ki [2] | IC50 ([3]; insect cells) | IC50 [4] | Ki [4] | IC50 [5] | Ki [5] | IC50 ([6]; read-out: IC50) | IC50 [7] | Ki [7] | IC50 [6] | IC50 ([3]; read-out: IC50)
CCc1oc2ccccc2c1C(=O)c1cc(Br)c(O)c(Br)c1 [BENZBROMARONE] | Not Active | Not Active | Not Active | Not Active | Not Active | Not Active | Not Active | Not Active | 1.24 µM | Not Active | Not Active | – | –
O=c1cc(-c2ccccc2)oc2ccc3ccccc3c12 [BETA-NAPHTHOFLAVONE] | Not Active | Not Active | Not Active | Not Active | Not Active | Not Active | Not Active | Not Active | – | Not Active | Not Active | Not Active | –
CS(=O)(=O)OCCCCOS(C)(=O)=O [BUSULFAN] | Not Active | Not Active | Not Active | Not Active | Not Active | Not Active | Not Active | Not Active | – | Not Active | Not Active | Not Active | –
O=C(/C=C/c1ccc(O)c(O)c1)OCCc1ccccc1 [CAFFEIC ACID PHENETHYL ESTER] | Not Active | Not Active | Not Active | – | Not Active | Not Active | Not Active | Not Active | – | Not Active | Not Active | Not Active | 1.01 µM
COc1cc(CNC(=O)CCCC/C=C/C(C)C)ccc1O [CAPSAICIN] | Not Active | Not Active | Not Active | Not Active | Not Active | Not Active | Not Active | Not Active | – | Not Active | Not Active | Not Active | –
NC(=O)N1c2ccccc2C=Cc2ccccc21 [CARBAMAZEPINE] | Not Active | Not Active | Not Active | Not Active | Not Active | Not Active | Not Active | Not Active | – | Not Active | Not Active | Not Active | –
CCOC(=O)n1ccn(C)c1=S [CARBIMAZOLE] | Not Active | Not Active | Not Active | Not Active | Not Active | Not Active | Not Active | Not Active | – | Not Active | Not Active | Not Active | –
Oc1ccccc1O [CATECHOL] | Not Active | Not Active | Not Active | – | Not Active | Not Active | Not Active | Not Active | – | Not Active | Not Active | Not Active | 26 µM
CO[C@@]1(NC(=O)CSCC#N)C(=O)N2C(C(=O)O)=C(CSc3nnnn3C)CS[C@@H]21 [CEFMETAZOLE] | Not Active | Not Active | Not Active | Not Active | Not Active | Not Active | Not Active | Not Active | – | Not Active | Not Active | Not Active | –
CN(C(=O)CCCOc1ccc2[nH]c(=O)ccc2c1)C1CCCCC1 [CILOSTAMIDE] | Not Active | Not Active | Not Active | Not Active | Not Active | Not Active | Not Active | Not Active | – | Not Active | Not Active | Not Active | –
CC(C)(Oc1ccc(C2CC2(Cl)Cl)cc1)C(=O)O (stereo not given) [CIPROFIBRATE] | Not Active | Not Active | Not Active | Not Active | Not Active | Not Active | Not Active | Not Active | – | Not Active | Not Active | Not Active | –
Nc1nc(Cl)nc2c1ncn2[C@H]1C[C@H](O)[C@@H](CO)O1 [CLADRIBINE] | Not Active | Not Active | Not Active | Not Active | Not Active | Not Active | Not Active | Not Active | – | Not Active | Not Active | Not Active | –
CC[C@H]1OC(=O)[C@H](C)[C@@H](O[C@H]2C[C@@](C)(OC)[C@@H](O)[C@H](C)O2)[C@H](C)[C@@H](O[C@@H]2O[C@H](C)C[C@H](N(C)C)[C@H]2O)[C@](C)(OC)C[C@@H](C)C(=O)[C@H](C)[C@@H](O)[C@]1(C)O [CLARITHROMYCIN] | Not Active | Not Active | Not Active | Not Active | Not Active | Not Active | Not Active | Not Active | – | Not Active | Not Active | Not Active | –
O=C(O)c1cc(=O)c2c(OCC(O)COc3cccc4oc(C(=O)O)cc(=O)c34)cccc2o1 [CROMOLYN] | Not Active | Not Active | Not Active | Not Active | Not Active | Not Active | Not Active | Not Active | – | Not Active | Not Active | Not Active | –
O=P1(N(CCCl)CCCl)NCCCO1 (stereo not given) [CYCLOPHOSPHAMIDE ANHYDROUS] | Not Active | Not Active | Not Active | Not Active | Not Active | Not Active | Not Active | Not Active | – | Not Active | Not Active | Not Active | –
CC(=O)O[C@]1(C(C)=O)CC[C@H]2[C@@H]3C=C(Cl)C4=CC(=O)[C@@H]5C[C@@H]5[C@]4(C)[C@H]3CC[C@@]21C [CYPROTERONE ACETATE] | Not Active | Not Active | Not Active | Not Active | Not Active | Not Active | Not Active | Not Active | – | Not Active | Not Active | Not Active | –
Nc1nc(N)nc(NC2CC2)n1 [CYROMAZINE] | Not Active | Not Active | Not Active | Not Active | Not Active | Not Active | Not Active | Not Active | – | Not Active | Not Active | Not Active | –
C#C[C@]1(O)CC[C@H]2[C@@H]3CCC4=Cc5oncc5C[C@]4(C)[C@H]3CC[C@@]21C [DANAZOL] | Not Active | Not Active | Not Active | Not Active | Not Active | Not Active | Not Active | Not Active | – | Not Active | Not Active | Not Active | –
CCN[C@@H](C)Cc1cccc(C(F)(F)F)c1 [DEXFENFLURAMINE] | Not Active | Not Active | Not Active | Not Active | Not Active | Not Active | Not Active | Not Active | – | Not Active | Not Active | Not Active | –
C[C@H](C(=O)O)c1cccc(C(=O)c2ccccc2)c1 [DEXKETOPROFEN] | Not Active | Not Active | Not Active | Not Active | Not Active | Not Active | Not Active | Not Active | – | Not Active | Not Active | Not Active | –
